Results published in US20050165085A1, “Polymorphic forms of tegaserod base and salts thereof” (priority 2003, published 2005).
“Also recorded” adds a separate entry of the source.

Columns and labels:
[1] = Heating of tegaserod maleate polymorphic forms, form after heating; format: physicochemical; conditions: for Polymorphic transformation / thermal stability upon heating: statement in text, temperature not given
Text: X-Ray powder diffraction data were obtained using by method known in the art using a SCINTAG powder X-Ray diffractometer model X'TRA equipped with a solid state detector. Copper radiation of 1.5418 Å was used. A round aluminum sample holder with zero background was used. All peak positions are within ±0.2 degrees two theta.

[2] = Solubility of tegaserod acetate Form J compared with tegaserod base; format: physicochemical; conditions: solvent not stated
[3] = Physician's Desk Reference, 57th Ed., cited from earlier work

With `CCCCCNC(=N)N/N=C/c1c[nH]c2ccc(OC)cc12.O=C(O)/C=C\C(=O)O` [Form D, Tegaserod maleate] the “Polymorphic transformation / thermal stability upon heating” value [1] was “transformation to Form A; also recorded: transforms to Form A upon heating”.
For “Tegaserod acetate [Tegaserod acetate Form J]”, the “Solubility relative to tegaserod base” value [2] was “less soluble than tegaserod base”.
In the case of `CCCCCNC(=N)N/N=C/c1c[nH]c2ccc(OC)cc12.O=C(O)/C=C\C(=O)O` [Form B1, Tegaserod maleate], the “Polymorphic transformation upon heating, assumed from DSC curves” value ([1]; assumed from DSC curves, all forms show the melting peak of Form A) is reported as “transform to Form A upon heating”.
With `CCCCCNC(=N)N/N=C/c1c[nH]c2ccc(OC)cc12.O=C(O)/C=C\C(=O)O` [Form B2, Tegaserod maleate] the “Polymorph form after heating” value ([1]; 2 hr. at 80 deg.) was “B + C + A”, the “Polymorph form after heating” value ([1]; 2 hr. at 100 deg.) was “B + C + A” and the “Polymorph form after heating” value ([1]; 2 hr. at 120 deg.) was “C + A”. For the same compound, the “Polymorph form after heating” value ([1]; 2 hr. at 140 deg., listed as B2) was “C + A” and the “Polymorphic transformation / thermal stability upon heating” value [1] was “transform to Form A upon heating”.
For `CCCCCNC(=N)N/N=C/c1c[nH]c2ccc(OC)cc12.O=C(O)/C=C\C(=O)O` [Form A, Tegaserod maleate, reference compound], the “Polymorphic transformation / thermal stability upon heating” value [1] was “exhibits thermal stability at higher temperatures”.
For `CCCCCNC(=N)N/N=C/c1c[nH]c2ccc(OC)cc12.O=C(O)/C=C\C(=O)O` [tegaserod as the maleate salt, Tegaserod maleate], the Solubility in ethanol ([3]; ethanol) is listed as “slightly soluble” and the Solubility in water ([3]; water) is listed as “very slightly soluble”.
With `CCCCCNC(=N)N/N=C/c1c[nH]c2ccc(OC)cc12.O=C(O)/C=C\C(=O)O` [Form B, Tegaserod maleate] the “Polymorph form after heating” value ([1]; 2 hr. at 100 deg., listed as B (wet)) was “B > C + A”, the “Polymorph form after heating” value ([1]; 2 hr. at 120 deg., listed as B (wet)) was “A > C” and the “Polymorphic transformation / thermal stability upon heating” value [1] was “transform to Form C upon heating before it transforms to Form A”. The “Polymorphic transformation / thermal stability upon heating” value ([1]; listed as B) was “transform to Form A upon heating”.
In the case of `CCCCCNC(=N)N/N=C/c1c[nH]c2ccc(OC)cc12.O=C(O)/C=C\C(=O)O` [Form C, Tegaserod maleate], the “Polymorph form after heating” value ([1]; 2 hr. at 140 deg., listed as C) is reported as “C > A” and the “Polymorphic transformation / thermal stability upon heating” value ([1]; listed as C) is reported as “transform to Form A upon heating”.
